Patent US20080171737A1 (Wyeth, priority 2006, published 2008)
Structures can show the parent of a compound that is named as a salt.

biological target: T1, human hNET (Homo sapiens, UniProt P23975); assay: Functional norepinephrine reuptake assay, Procedure B (6,000 cells/well); type: cell-based; conditions: not given
T1 construct: expressed in transfected cells; host or cells: MDCK-Net6 (MDCK cells stably transfected with hNET)
Description: For screening, 25 μl aliquots of compound solution at a 1 μM or 10 μM final concentration was delivered directly to cells.
For IC50 determinations, stock compounds were prepared at 10 mM from powder. The stock solution was diluted according to compound testing range. […] On the day of assay, 25 μl of compound solution at the specified concentrations were added to the plates containing cells. A DMSO stock of desipramine was prepared at 10 mM in DMSO and diluted for a final concentration of 20 μM to determine the non-specific reuptake.
MDCK-Net6 cells, stably transfected with human hNET (Pacholczyk, 1991), were maintained in growth media [high glucose DMEM (Gibco Cat. 11995), 10% FBS (dialyzed, heat-inactivated, Sigma, dialysed, heat inactivated, Lot# K0922 or equivalent) 1xPen/Strep, and 500 μg/ml G418 (Gibco Cat. 10131)]. Cells were plated at 300,000/T75 flask and cells split twice weekly.
Cells were plated at 50,000 cells/well (Procedure A) or 6,000 cells/well (Procedure B) on day 1 in BD Falcon Microtest 96-well sterile cell culture plates, Optilux White/Clear Bottom TC plate (VWR; # 62406-466 or equivalent) in growth media and maintained in a cell incubator (37° C., 5% CO2). On Day 2, cells were removed from the cell incubator and the growth media is replaced by 200 μl of assay buffer (25 mm HEPES 120 mM NaCL; 5 mM KCl; 2.5 mM CaCl2; 1.2 mM MgSO4; 2 mg/ml glucose (pH 7.4, 37° C.)) containing 0.2 mg/ml ascorbic acid and 1 μM parglyine. For screening, 25 μl of compound in 4% DMSO was added directly to each well and the plate was incubated for 5 minutes (37° C.). […] The reaction is aspirated from the plate and the cells washed with 250 μl of 50 mM Tris Buffer (4° C.). The plates were left to dry for 1 hour. The cells were lysed using 0.25 M NaOH solution then placed on a shake table and vigorously shaken for 10 minutes. After cell lysis, 100 μl of Microscint 20 (PerkinElmer; #87-051101) was added to the plates and the plates were sealed with film tape and replaced on the shake table for a minimum of 10 minutes. The plates were counted in a TopCount counter (PerkinElmer).
% inhibition=[1−((mean cpm test compound wells−mean cpm non-specific wells)/(mean cpm control wells−mean cpm non-specific wells))]×100
For IC50 determination, raw cpm values were generated in a data file from the TopCount counter. The data was organized using the Microsoft Excel and transferred into PRIZM graphing and statistical program, which calculated the estimated IC50 value. Calculation of IC50 values was made using non-linear regression analysis with a sigmoidal dose response with variable slope. The statistical program used wells containing ^3H norepinephrine only as the maximal NE reuptake determinant and wells containing ^3H norepinephrine plus 20 μM desipramine (AHR-9543) as the minimal NE reuptake determinant (non-specific determinant). Estimation of the IC50 value was completed on a log scale and the line was fit between the maximal and minimal NE reuptake values.

T1 sequence (P23975 whole entry): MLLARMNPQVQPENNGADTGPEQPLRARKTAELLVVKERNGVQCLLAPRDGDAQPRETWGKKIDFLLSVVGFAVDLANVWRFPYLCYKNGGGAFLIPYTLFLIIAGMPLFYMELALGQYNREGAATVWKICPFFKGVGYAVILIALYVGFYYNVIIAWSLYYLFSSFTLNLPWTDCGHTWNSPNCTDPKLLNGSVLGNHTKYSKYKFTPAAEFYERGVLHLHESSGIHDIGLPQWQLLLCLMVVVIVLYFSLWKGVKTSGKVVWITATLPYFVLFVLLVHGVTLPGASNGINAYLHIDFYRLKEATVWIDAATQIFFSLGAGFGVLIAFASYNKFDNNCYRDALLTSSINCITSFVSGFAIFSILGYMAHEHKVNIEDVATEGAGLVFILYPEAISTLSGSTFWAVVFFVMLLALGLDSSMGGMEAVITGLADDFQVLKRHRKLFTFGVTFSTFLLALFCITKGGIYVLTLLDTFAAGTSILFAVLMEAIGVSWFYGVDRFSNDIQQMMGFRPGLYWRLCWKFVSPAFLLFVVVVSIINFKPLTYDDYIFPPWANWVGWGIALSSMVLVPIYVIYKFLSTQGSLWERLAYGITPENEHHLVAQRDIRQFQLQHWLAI

Row | Structure (SMILES) | IC50
1 | CNCCC[C@H]1Cc2ccccc2N(c2c(F)cccc2F)S1(=O)=O (single isomer, unassigned) [Example 121] | 52 nM
2 | CNCCC[C@@H]1Cc2ccccc2N(c2c(F)cccc2F)S1(=O)=O (single isomer, unassigned) [Example 122] | 5 nM
3 | CNCCC[C@H]1Cc2cc(F)ccc2N(c2c(F)cccc2F)S1(=O)=O (single isomer, unassigned) [Example 155] | 25 nM
4 | CNCCC[C@@H]1Cc2cc(F)ccc2N(c2c(F)cccc2F)S1(=O)=O (single isomer, unassigned) [Example 156] | 27 nM

same assay, conditions: MDCK-Net6 cells, 6,000 cells/well, 16 nM 3H-norepinephrine; read-out: Procedure B hNET uptake IC50

Row | IC50 | Structure (SMILES)
5 | 546 nM | CNCC[C@@H](O)[C@@H]1Cc2ccccc2N(c2ccccc2)S1(=O)=O (single isomer, unassigned) [Example 115]
6 | 85 nM | CNCC[C@@H](O)[C@H]1Cc2ccccc2N(c2ccccc2)S1(=O)=O (single isomer, unassigned) [Example 116]
7 | 79 nM | CNCC[C@H](O)[C@H]1Cc2ccccc2N(c2ccccc2)S1(=O)=O (single isomer, unassigned) [Example 117]
8 | 143 nM | CNCC[C@H]1Oc2cc(F)ccc2N(c2ccccc2)S1(=O)=O (single isomer, unassigned) [Example 118]
9 | 494 nM | CNCC[C@@H]1Oc2cc(F)ccc2N(c2ccccc2)S1(=O)=O (single isomer, unassigned) [Example 119]
10 | 1710 nM | CNCCC[C@H]1Cc2ccccc2N(c2cccnc2)S1(=O)=O (single isomer, unassigned) [Example 124]
11 | 238 nM | CNCCC[C@@H]1Cc2ccccc2N(c2cccnc2)S1(=O)=O (single isomer, unassigned) [Example 125]
12 | 1540 nM | CNCCC[C@H]1Cc2ccccc2N(c2ccccn2)S1(=O)=O (single isomer, unassigned) [Example 127]
13 | 89 nM | CNCCC[C@@H]1Cc2ccccc2N(c2ccccn2)S1(=O)=O (single isomer, unassigned) [Example 128]
14 | 45 nM | CNCCC[C@@H]1Oc2cc(F)ccc2N(c2ccccc2F)S1(=O)=O (single isomer, unassigned) [Example 130, Hydrochloride]
15 | 31 nM | CNCCC[C@H]1Oc2cc(F)ccc2N(c2ccccc2F)S1(=O)=O (single isomer, unassigned) [Example 131, Hydrochloride]
16 | 66 nM | CNCCC[C@H]1Cc2cc(F)ccc2N(c2cccc(F)c2F)S1(=O)=O (single isomer, unassigned) [Example 146]
17 | 34 nM | CNCCC[C@@H]1Cc2cc(F)ccc2N(c2cccc(F)c2F)S1(=O)=O (single isomer, unassigned) [Example 147]
18 | 74 nM | CNCCC[C@H]1Cc2cc(F)ccc2N(c2ccc(C)cc2F)S1(=O)=O (single isomer, unassigned) [Example 149]
19 | 16 nM | CNCCC[C@@H]1Cc2cc(F)ccc2N(c2ccc(C)cc2F)S1(=O)=O (single isomer, unassigned) [Example 150]
20 | 40 nM | CNCCC[C@H]1Cc2cc(F)ccc2N(c2cc(F)ccc2F)S1(=O)=O (single isomer, unassigned) [Example 152]
21 | 43 nM | CNCCC[C@@H]1Cc2cc(F)ccc2N(c2cc(F)ccc2F)S1(=O)=O (single isomer, unassigned) [Example 153]
22 | 145 nM | CNCCC[C@H]1Cc2cc(F)ccc2N(c2ccccc2Cl)S1(=O)=O (single isomer, unassigned) [Example 158]
23 | 133 nM | CNCCC[C@@H]1Cc2cc(F)ccc2N(c2ccccc2Cl)S1(=O)=O (single isomer, unassigned) [Example 159]
24 | 143 nM | CNCCC[C@H]1Cc2cc(F)ccc2N(c2ccccc2C)S1(=O)=O (single isomer, unassigned) [Example 161]
25 | 135 nM | CNCCC[C@@H]1Cc2cc(F)ccc2N(c2ccccc2C)S1(=O)=O (single isomer, unassigned) [Example 162]
26 | 288 nM | CNCCC[C@H]1Cc2cc(F)ccc2N(c2ccccc2C#N)S1(=O)=O (single isomer, unassigned) [Example 164]
